# Key:
# Assay in all cases: ≥ marks a high value that may be exact or a test limit, other limits are often not marked, values filed in µg/mL are converted to µM
# [1] = tested on: Staphylococcus aureus USA 300
# Bacillus subtilis 168 = tested on: Bacillus subtilis 168
# Escherichia coli K-12 = tested on: Escherichia coli K-12
# [2] = tested on: Pseudomonas aeruginosa PAO1
# Leuconostoc lactis = tested on: Leuconostoc lactis
# Streptococcus uberis = tested on: Streptococcus uberis
# Listeria innocua = tested on: Listeria innocua
# Staphylococcus aureus = tested on: Staphylococcus aureus
# Escherichia coli = tested on: Escherichia coli
# Pasteurella multocida = tested on: Pasteurella multocida
# Bacillus cereus = tested on: Bacillus cereus
# [3] = tested on: Staphylococcus epidermidis
# Micrococcus luteus = tested on: Micrococcus luteus
# Pseudomonas aeruginosa = tested on: Pseudomonas aeruginosa
# [4] = tested on: Staphylococcus aureus ATCC 25923
# Enterococcus faecalis = tested on: Enterococcus faecalis
# [5] = tested on: Staphylococcus aureus ATCC 29213
# Enterobacter cloacae = tested on: Enterobacter cloacae
# Staphylococcus aureus MR = tested on: Staphylococcus aureus MR
# Acinetobacter baumannii = tested on: Acinetobacter baumannii
# [6] = tested on: Acinetobacter baumannii ATCC 19606
# [7] = tested on: Escherichia coli ATCC 25922
# [8] = tested on: Candida albicans ATCC 90028
# [9] = tested on: Pseudomonas aeruginosa ATCC 27853
# Escherichia coli UB1005 = tested on: Escherichia coli UB1005
# [10] = tested on: Staphylococcus epidermidis ATCC 12228
# [11] = tested on: Salmonella enterica subsp. enterica serovar Typhimurium ATCC 14028
# [12] = tested on: Enterococcus faecalis ATCC 29212
# [13] = tested on: Salmonella enterica subsp. enterica serovar Pullorum C79-13
# [14] = tested on: Bacillus subtilis CMCC 63501
SMILES,MIC (Leuconostoc lactis) [µM],MIC (Streptococcus uberis) [µM],MIC (Listeria innocua) [µM],MIC (Staphylococcus aureus) [µM],MIC (Escherichia coli) [µM],MIC (Pasteurella multocida) [µM],MIC (Bacillus cereus) [µM],MIC [3] [µM],MIC (Micrococcus luteus) [µM],MIC [5] [µM],MIC (Staphylococcus aureus MR) [µM],further results
CC[C@H](C)[C@H](NC(=O)[C@@H](NC(=O)[C@H](CCCCN)NC(=O)CNC(=O)[C@@H](NC(=O)[C@@H](NC(=O)[C@H](CO)NC(=O)[C@@H](NC(=O)[C@@H](NC(=O)[C@@H]1CCCN1C(=O)[C@@H](NC(=O)[C@@H](NC(=O)CN)[C@@H](C)CC)[C@@H](C)CC)[C@@H](C)CC)[C@@H](C)CC)[C@@H](C)CC)[C@@H](C)CC)[C@@H](C)CC)C(N)=O [GIIPIISIIGKII],,,,,,,,,,,,MIC [1]: ≥ 34 µM; MIC (Bacillus subtilis 168): 30 µM; MIC (Escherichia coli K-12): ≥ 34 µM; MIC [2]: > 30 µM
CC[C@H](C)[C@H](NC(=O)[C@@H](NC(=O)[C@H](CO)NC(=O)[C@H](C)NC(=O)[C@@H](NC(=O)[C@H](CCCCN)NC(=O)[C@H](CCCCN)NC(=O)[C@@H](NC(=O)[C@@H](NC(=O)[C@H](CC(=O)O)NC(=O)[C@H](C)NC(=O)[C@H](CC(C)C)NC(=O)CN)C(C)C)[C@@H](C)CC)C(C)C)C(C)C)C(=O)NCC(=O)NCC(=O)N[C@@H](CC(C)C)C(N)=O [GLADVIKKVASVIGGL],≥ 64.9,≥ 64.9,≥ 64.9,64.9,> 64.9,≥ 64.9,≥ 32.5,≥ 64.9,≥ 32.5,,,
CC[C@H](C)[C@H](NC(=O)[C@@H](NC(=O)[C@H](C)NC(=O)[C@H](Cc1ccccc1)NC(=O)[C@H](CC(C)C)NC(=O)CN)C(C)C)C(=O)N[C@@H](CCCCN)C(=O)N[C@@H](CCCCN)C(=O)N[C@H](C(=O)N[C@@H](C)C(=O)N[C@@H](CCCCN)C(=O)N[C@H](C(=O)N[C@H](C(=O)N[C@@H](CCCCN)C(=O)N[C@@H](CCCCN)C(=O)N[C@@H](CC(C)C)C(N)=O)[C@@H](C)CC)C(C)C)C(C)C [GLFAVIKKVAKVIKKL],1.71,28.5,≥ 57,14.2,> 57,≥ 57,14.2,6.84,14.2,,,
CC[C@H](C)[C@H](NC(=O)[C@@H](NC(=O)[C@H](CO)NC(=O)[C@H](C)NC(=O)[C@@H](NC(=O)[C@H](CCCCN)NC(=O)[C@H](C)NC(=O)[C@@H](NC(=O)[C@@H](NC(=O)[C@H](CC(=O)O)NC(=O)[C@H](Cc1ccccc1)NC(=O)[C@H](CC(C)C)NC(=O)CN)C(C)C)[C@@H](C)CC)C(C)C)C(C)C)C(=O)NCC(=O)NCC(=O)N[C@@H](CC(C)C)C(N)=O [GLFDVIAKVASVIGGL],16,≥ 64.1,≥ 64.1,64.1,> 64.1,≥ 64.1,≥ 64.1,≥ 64.1,≥ 64.1,,,
CC[C@H](C)[C@H](NC(=O)[C@H](CCCCN)NC(=O)[C@H](CO)NC(=O)[C@H](C)NC(=O)[C@@H](NC(=O)[C@H](CCCCN)NC(=O)[C@H](CCCCN)NC(=O)[C@@H](NC(=O)[C@@H](NC(=O)[C@H](CC(=O)O)NC(=O)[C@H](Cc1ccccc1)NC(=O)[C@H](CC(C)C)NC(=O)CN)C(C)C)[C@@H](C)CC)C(C)C)C(=O)N[C@@H](CCCCN)C(=O)NCC(=O)N[C@@H](CC(C)C)C(N)=O [GLFDVIKKVASKIKGL],3.5,≥ 58.3,≥ 58.3,> 58.3,> 58.3,≥ 58.3,≥ 58.3,≥ 58.3,≥ 58.3,,,
CC[C@H](C)[C@H](NC(=O)[C@@H](NC(=O)[C@@H]1CCCN1C(=O)[C@H](C)NC(=O)[C@@H](NC(=O)[C@H](Cc1cnc[nH]1)NC(=O)[C@@H]1CCCN1C(=O)[C@H](CC(C)C)NC(=O)[C@H](CC(C)C)NC(=O)[C@H](Cc1cnc[nH]1)NC(=O)[C@H](CCCCN)NC(=O)[C@H](C)NC(=O)[C@@H](NC(=O)[C@H](CO)NC(=O)CNC(=O)[C@H](CC(C)C)NC(=O)[C@@H](NC(=O)[C@H](CCCCN)NC(=O)[C@H](Cc1ccccc1)NC(=O)[C@H](CC(C)C)NC(=O)CN)C(C)C)C(C)C)C(C)C)[C@@H](C)CC)C(=O)N[C@@H](C)C(=O)N[C@@H](CCC(=O)O)C(=O)N[C@@H](CCCCN)C(=O)N[C@@H](CC(C)C)C(N)=O [GLFKVLGSVAKHLLPHVAPIIAEKL],1.13,9.43,4.53,,> 37.7,18.9,18.9,4.53,9.43,4.53,,MIC (Pseudomonas aeruginosa): > 37.7 µM; MIC [4]: 4.53 µM; MIC (Enterococcus faecalis): ≥ 37.7 µM; MIC (Enterobacter cloacae): ≥ 37.7 µM
CC[C@H](C)[C@H](NC(=O)[C@H](CCCN=C(N)N)NC(=O)[C@H](CCCCN)NC(=O)[C@@H](NC(=O)[C@@H](NC(=O)[C@H](CCCN=C(N)N)NC(=O)[C@@H](N)CCCCN)[C@@H](C)CC)C(C)C)C(=O)N[C@@H](CCCCN)C(=O)N[C@@H](CC(=O)O)C(=O)N[C@@H](Cc1ccccc1)C(=O)N[C@@H](CC(C)C)C(=O)N[C@@H](CCCN=C(N)N)C(=O)O [KRIVKRIKDFLR],,,,,,,,,,2.5,≥ 204,MIC [4]: ≥ 204 µM; MIC (Acinetobacter baumannii): ≥ 50.9 µM; MIC [6]: ≥ 102 µM; MIC [7]: 1.25 µM; MIC [8]: 2.5 µM; MIC [9]: 2.5 µM
CC[C@H](C)[C@H](NC(=O)[C@H](Cc1ccc(O)cc1)NC(=O)[C@H](CCCN=C(N)N)NC(=O)[C@H](CCCCN)NC(=O)[C@H](Cc1ccc(O)cc1)NC(=O)[C@@H](N)CC(C)C)C(=O)N[C@@H](CC(C)C)C(=O)N[C@@H](CCCN=C(N)N)C(=O)N[C@@H](CCCCN)C(=O)N[C@@H](Cc1ccccc1)C(=O)N[C@@H](CCCCN)C(=O)N[C@@H](Cc1ccccc1)C(=O)N[C@@H](CC(C)C)C(=O)N[C@@H](CCCCN)C(=O)N[C@@H](CCCCN)C(=O)N[C@@H](CCCCN)C(=O)N[C@@H](CC(C)C)C(=O)N[C@@H](CCCCN)C(=O)N[C@@H](CCCCN)C(=O)N[C@@H](CCCCN)C(N)=O [LYKRYILRKFKFLKKKLKKK],,,,,,,,,,,24,
CC(C)C[C@H](NC(=O)[C@@H](N)CCCN=C(N)N)C(=O)N[C@@H](C)C(=O)N[C@@H](CCCN=C(N)N)C(=O)N[C@@H](CCCN=C(N)N)C(=O)N[C@H](C(=O)N[C@H](C(=O)N[C@@H](CCCN=C(N)N)C(=O)N[C@@H](CCCN=C(N)N)C(=O)N[C@H](C(=O)N[C@@H](C)C(=O)N[C@@H](CCCN=C(N)N)C(N)=O)C(C)C)C(C)C)C(C)C [RLARRVVRRVAR],,,,> 66.3,,,,,,,≥ 66.3,
C[C@H](NC(=O)[C@H](C)NC(=O)[C@H](CCCCN)NC(=O)[C@H](C)NC(=O)[C@H](C)NC(=O)[C@H](C)NC(=O)[C@H](CCCCN)NC(=O)[C@H](Cc1ccccc1)NC(=O)[C@@H](N)Cc1c[nH]c2ccccc12)C(=O)N[C@@H](C)C(=O)N[C@@H](CCCCN)C(=O)N[C@@H](Cc1ccccc1)C(=O)N[C@@H](Cc1c[nH]c2ccccc12)C(N)=O [WFKAAAKAAAKFW],,,,,,,,,,8,,MIC (Escherichia coli UB1005): 4 µM; MIC [10]: 16 µM; MIC [7]: 4 µM; MIC [11]: 32 µM; MIC [12]: 32 µM; MIC [13]: 8 µM; MIC [14]: 8 µM; MIC [9]: 16 µM

# — DBAASP
